PubChem BioAssay AID720632 (Broad Institute, 2013)
Activity calls are given as the source filed them. The rule behind the calls is not given here.

Target: Caspase-6 (Homo sapiens) (UniProt P55212)
Test: inhibition of CASP6 peptide cleavage – biochemical, VEID-R110 fluorescence, cherry-pick, dose response (AID 720632)
Settings: caspase-6, VEID-R110 fluorogenic substrate; for activity change, negative = inhibition: at 26 µM (top of the series)

Chain of Caspase-6 (Homo sapiens) (P55212 24-179 limits assumed): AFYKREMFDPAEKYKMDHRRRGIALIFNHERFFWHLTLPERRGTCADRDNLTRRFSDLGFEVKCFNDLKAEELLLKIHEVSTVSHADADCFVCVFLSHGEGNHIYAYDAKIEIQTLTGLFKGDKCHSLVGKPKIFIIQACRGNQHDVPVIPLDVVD
Chain of Caspase-6 (Homo sapiens) (P55212 194-293 limits assumed): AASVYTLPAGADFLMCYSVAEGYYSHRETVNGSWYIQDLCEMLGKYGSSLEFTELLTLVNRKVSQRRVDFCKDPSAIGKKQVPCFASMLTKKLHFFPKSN

Compound	activity change, negative = inhibition	AC50 [µM]
CN1CC(=O)N2Cc3[nH]c4ccccc4c3C[C@H]2C1=O	inactive	
C[CH2][Hg][S]c1ccccc1C(=O)O		6.91
CC(C)N=C(Nc1cccnc1)c1ccccc1	inactive	
CC(=O)N1CCc2c(sc(NC(=O)Cc3ccccc3)c2C(N)=O)C1	inactive	
COc1ccccc1-n1c(CNC(=O)c2ccc(S(=O)(=O)N3CCCCC3)cc2)n[nH]c1=S	inactive	
CC(C)=NNc1cc([N+](=O)[O-])cc2c1C(=O)N(C)S2=O (stereo not drawn)	inactive	
CCCN1C[C@@H](C)[C@@H](OC)CN(C)C(=O)c2ccc(NC(=O)c3ccccc3)cc2OC[C@H]1C	inactive	
O=C(NC(=S)NNS(=O)(=O)c1ccccc1)c1ccccc1[N+](=O)[O-]	inactive	
Cc1ccccc1OC1(C)CCN(Cc2ccc(-c3ccccn3)cc2)C1 (stereo not drawn)	inactive	
O=C(Nc1ccccc1)C1CCN(S(=O)(=O)c2ccc3c(c2)OCCO3)CC1	inactive	
Cc1ccc2c(c1)c1c(n2CC(O)CN2CCC(C)CC2)CCCC1 (stereo not drawn)	inactive	
COCCNc1nc(Nc2ccccc2Cl)c2sc(-c3ccccc3)cc2n1	inactive	
O=C1[C@H]2[C@@H](c3ccccc3)N[C@]3(CCCN(CC4CCCCC4)C3=O)[C@H]2C(=O)N1Cc1ccccc1	inactive	
CC1CCN(C(=O)Cn2cc(C(F)(F)F)ccc2=O)c2ccccc2S1 (stereo not drawn)	inactive	
O=S(=O)(NCc1cccnc1)c1ccc(Cl)cc1	inactive	
CCO[C@H]1OC(C(=O)N2CCOCC2)=C[C@@H](c2ccc3c(c2)OCO3)[C@@H]1CCCO	inactive	
O=C(O)C[C@H]1CC[C@H]2[C@@H](COC[C@H](O)CN2S(=O)(=O)c2ccc(Oc3ccccc3)cc2)O1	inactive	
O=C(NC(=O)c1csnn1)Nc1ccccc1Cl	inactive	
CCC1=NN(C(=O)c2ccccc2O)C(O)(c2ccccc2)C1 (stereo not drawn)	inactive	
C=CCOc1cccn2c(N(C=O)Cc3ccccc3)c(CC)nc12	inactive	
O=C(ONC(=O)C1CCCCC1C(=O)NOC(=O)c1ccccc1)c1ccccc1 (stereo not drawn)	inactive	
CCC(=O)Nc1c(C#N)c2nc3ccccc3nc2n1-c1ccc(C)cc1	inactive	
CCCN1C[C@H](C)[C@@H](OC)CN(C)C(=O)c2ccc(NC(=O)CC)cc2OC[C@H]1C	inactive	
C/C(=N\NC(=O)c1ccccc1O)c1ccc(NC(=O)Cc2ccccc2)cc1	inactive	
CN1CCN(C(=O)c2cc(Cl)cc(Cl)c2)CC1	inactive	
O=C(C[C@@H]1C=C[C@H](NC(=O)C2CC2)[C@H](CO)O1)Nc1nccs1	inactive	
O=[N+]([O-])c1ccccc1S(=O)(=O)Nc1nc2ccccc2s1	inactive	
Cc1cccc(C)c1OCC(=O)NCc1ccccc1	inactive	
